Where two headings read alike, the source gives them in different places.
What was measured:
human DGKα = human DGKα (Homo sapiens (Human), UniProt P23743); test: biochemical; details: detergent/lipid micelle substrate; read-out: DGKα IC50
Method in brief: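 Enzymes were baculovirus/Sf9 full-length human DGKα or DGKζ with His tag. The substrate was PS/DAG in octyl glucoside micelles, in MOPS pH 7.5 buffer with NaCl, MgCl2, CaCl2 and DTT.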

Human venous whole blood = test: Human Whole Blood IFN-γ Assay; format: cell-based; details: human whole blood, anti-CD3 plus anti-CD28 as baseline, 3 μM Example 40 co-stimulation as 100% activation, read-out: INF-γ Whole Blood Normalized Agonist EC50
Experimental: Human venous whole blood (22.5 μL per well), obtained from healthy donors, was pre-treated with compounds for one hour at 37° C. in a humidified 95% air/5% CO2 incubator. The blood was stimulated with 2.5 μL anti-human CD3 and anti-CD28 mAb at a final concentration of 1 μg/mL each for 24 hours at 37° C. IFN-γ in the supernatants was measured using AlphaLISA kit (Cat #AL217).

naïve human CD8 T cells [1] = test: CellTiter-Glo CD8 T Cell Proliferation Assay; format: cell-based; details: CellTiter-Glo CD8 T cell proliferation, normalized, read-out: CD8 GLO normalized EC50
Experimental: Frozen naïve human CD8 T cells were thawed in RPMI+10% FBS, incubated for 2 h in 37° C., and counted. The 384-well tissue culture plate was coated overnight at 4° C. with 20 μl anti-human CD3 at 0.1 μg/mL in plain RPMI, which was removed off the plate before 20 k/40 μl CD8 T cells with 0.5 μg/mL soluble anti-human CD28 were added to each well. The compounds were echoed to the cell plate immediately after the cells were plated. After 72 h incubation at 37° C. incubator, 10 μl CellTiter-glo reagent (Promega catalog number G7570) was added to each well. The plate was vigorously shaken for 5 mins, incubated at room temperature for another 15 mins and read on Envision for CD8 T cell proliferation. In analysis, 0.1 μg/mL anti-CD3 and 0.5 μg/mL anti-CD28 stimulated CD8 T cell signal was background.

naïve human CD8 T cells [2] = test: cells; details: 3 μM Example 40 co-stimulation as 100% activation
Method in brief: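 Thawed frozen cells, 40,000/well, stimulated on plate-bound anti-CD3 (coated at 0.05 μg/mL) plus soluble anti-CD28 0.1 μg/mL; compounds added immediately after plating. After 20 h at 37° C., supernatant IFN-γ quantitated by AlphaLISA, counts converted to IFN-γ concentration […].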

[3] = tested on: pre-activated CD4 T cells and Raji cells; test: Raji CD4 T Cell IL2 Assay; format: cell-based; details: Homo sapiens, Raji
[4] = Homo sapiens, T-cell, read-out: HuCD8 INFG Normalized EC50, anti-CD3 plus anti-CD28 as baseline
[5] = read-out: HuCD8 INFG Normalized EC50, anti-CD3 plus anti-CD28 as baseline

human DGKα, sequence (P23743 other isoform, or with tags, fused parts or gaps): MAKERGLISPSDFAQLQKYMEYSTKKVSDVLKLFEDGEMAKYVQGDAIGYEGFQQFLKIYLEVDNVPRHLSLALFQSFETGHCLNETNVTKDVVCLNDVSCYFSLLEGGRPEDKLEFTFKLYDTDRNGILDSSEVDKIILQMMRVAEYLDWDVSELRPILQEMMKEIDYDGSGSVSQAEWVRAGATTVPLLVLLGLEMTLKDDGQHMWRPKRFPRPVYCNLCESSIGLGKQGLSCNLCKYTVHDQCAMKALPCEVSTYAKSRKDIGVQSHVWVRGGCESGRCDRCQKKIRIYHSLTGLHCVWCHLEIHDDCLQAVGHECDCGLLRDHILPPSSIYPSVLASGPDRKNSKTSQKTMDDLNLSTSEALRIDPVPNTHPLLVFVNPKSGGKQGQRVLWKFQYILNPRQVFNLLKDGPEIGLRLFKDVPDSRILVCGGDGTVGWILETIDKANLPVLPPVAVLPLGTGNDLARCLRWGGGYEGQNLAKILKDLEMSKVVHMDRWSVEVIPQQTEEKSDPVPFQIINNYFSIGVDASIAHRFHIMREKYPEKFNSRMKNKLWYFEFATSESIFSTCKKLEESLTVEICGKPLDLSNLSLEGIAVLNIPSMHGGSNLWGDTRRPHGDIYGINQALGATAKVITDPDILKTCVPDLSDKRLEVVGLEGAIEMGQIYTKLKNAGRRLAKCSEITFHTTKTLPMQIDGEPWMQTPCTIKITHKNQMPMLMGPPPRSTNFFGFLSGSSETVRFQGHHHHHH

Question: With C#CCn1c(=O)c([N+](=O)[O-])c(N2CCN(C(c3ccc(F)cc3)c3ccc(F)cc3O)CC2)c2nc(C#N)ccc21 (single isomer, unassigned) [Example 121, 8-(4-((4-fluoro-2-hydroxyphenyl)(4-fluorophenyl)methyl)piperazin-1-yl)-7-nitro-6-oxo-5-(prop-2-yn-1-yl)-5,6-dihydro-1,5-naphthyridine-2-carbonitrile] as the molecule, how does the IC50 (human DGKα) read?
Answer: The IC50 was 1900 nM.

Question: What about the EC50 (Human venous whole blood; Homo sapiens) of the same molecule?
Answer: The EC50 was 550 nM.

Question: What does the source list for C#CCn1c(=O)c([N+](=O)[O-])c(N2CCN(C(C)c3ccc(F)cc3)CC2)c2nc(C#N)ccc21 (single isomer, unassigned) [Example 136, 8-(4-(1-(4-fluorophenyl)ethyl)piperazin-1-yl)-7-nitro-6-oxo-5-(prop-2-yn-1-yl)-5,6-dihydro-1,5-naphthyridine-2-carbonitrile]?
Answer: IC50 (human DGKα): 210 nM; EC50 (Human venous whole blood): 1160 nM

Question: How did the EC50 (naïve human CD8 T cells [1]; Homo sapiens, T-cell) turn out when C#CCn1c(=O)c([N+](=O)[O-])c(N2CCN(C(CC)c3ccc(F)cc3)CC2)c2nc(C#N)ccc21 (single isomer, unassigned) [Example 141, 8-{4-[1-(4-fluorophenyl)propyl]piperazin-1-yl}-7-nitro-6-oxo-5-(prop-2-yn-1-yl)-5,6-dihydro-1,5-naphthyridine-2-carbonitrile] was run?
Answer: Its EC50 is 10 nM.

Question: What about the EC50 (naïve human CD8 T cells [2]; [4]) of the same molecule?
Answer: The EC50 was 30 nM.

Question: And the IC50 (human DGKα)?
Answer: Its IC50 is 270 nM.

Question: How did the EC50 (naïve human CD8 T cells [1]; Homo sapiens, T-cell) turn out when C#CCn1c(=O)c([N+](=O)[O-])c(N2CCN(C(c3ccc(F)cc3)C3CC3)CC2)c2nc(C#N)ccc21 (single isomer, unassigned) [Example 143, 8-(4-(cyclopropyl(4-fluorophenyl)methyl)piperazin-1-yl)-7-nitro-6-oxo-5-(prop-2-yn-1-yl)-5,6-dihydro-1,5-naphthyridine-2-carbonitrile] was run?
Answer: The EC50 was 10 nM.

Question: And the EC50 (naïve human CD8 T cells [2]; [4])?
Answer: The EC50 was 90 nM.

Question: What about the IC50 (human DGKα) of the same molecule?
Answer: Its IC50 is 1300 nM.

Question: Which EC50 (naïve human CD8 T cells [1]; Homo sapiens, T-cell) does the source give for CC(C)C(c1ccc(F)cc1)N1CCN(c2c(C#N)c(=O)n(C)c3ccc(Cl)nc23)CC1 (single isomer, unassigned) [Example 315, 6-chloro-4-{4-[1-(4-fluorophenyl)-2-methylpropyl]piperazin-1-yl}-methyl-2-oxo-1,2-dihydro-1,5-naphthyridine-3-carbonitrile] here?
Answer: Its EC50 is 1260 nM.

Question: And the IC50 [3]?
Answer: Its IC50 is 250 nM.

Question: How did the EC50 (naïve human CD8 T cells [1]) turn out when Cn1c(=O)c(C#N)c(N2CCN(C(CC(C)(C)C)c3ccc(F)cc3)CC2)c2nc(Cl)ccc21 (single isomer, unassigned) [Example 377, 6-chloro-4-{4-[1-(4-fluorophenyl)-3,3-dimethylbutyl]piperazin-1-yl}-1-methyl-2-oxo-1,2-dihydro-1,5-naphthyridine-3-carbonitrile] was run?
Answer: Its EC50 is 10000 nM.

Question: For Cn1c(=O)c(C#N)c(N2CCN(C(CC(C)(C)C)c3ccc(F)cc3)CC2)c2nc(Cl)ccc21 (single isomer, unassigned) [Example 378, 6-chloro-4-{4-[1-(4-fluorophenyl)-3,3-dimethylbutyl]piperazin-1-yl}-1-methyl-2-oxo-1,2-dihydro-1,5-naphthyridine-3-carbonitrile], which EC50 (naïve human CD8 T cells [1]) is on record?
Answer: The EC50 was 1740 nM.

Question: Which EC50 (naïve human CD8 T cells [1]) does the source give for Cn1c(=O)c(C#N)c(N2CCN(C(c3ccc(F)cc3)C3CCC3)CC2)c2nc(Cl)ccc21 (single isomer, unassigned) [Example 382, 6-chloro-4-{4-[cyclobutyl(4-fluorophenyl)methyl]piperazin-1-yl}-1-methyl-2-oxo-1,2-dihydro-1,5-naphthyridine-3-carbonitrile] here?
Answer: Its EC50 is 1790 nM.

Question: Which EC50 (naïve human CD8 T cells [1]) does the source give for Cn1c(=O)c(C#N)c(N2CCN(C(c3ccc(F)cc3)C3CCC3)CC2)c2nc(Cl)ccc21 (single isomer, unassigned) [Example 383, 6-chloro-4-{4-[cyclobutyl(4-fluorophenyl)methyl]piperazin-1-yl}-1-methyl-2-oxo-1,2-dihydro-1,5-naphthyridine-3-carbonitrile] here?
Answer: Its EC50 is 60 nM.

Question: For CC(c1ccc(F)cc1)N1CCN(c2c(C#N)c(=O)n(C)c3ccc(Cl)nc23)CC1 (single isomer, unassigned) [Example 387, 6-chloro-4-{4-[1-(4-fluorophenyl)ethyl]piperazin-1-yl}-1-methyl-2-oxo-1,2-dihydro-1,5-naphthyridine-3-carbonitrile], which EC50 (naïve human CD8 T cells [1]) is on record?
Answer: The EC50 was 180 nM.

Question: Which EC50 (naïve human CD8 T cells [1]) does the source give for CC(c1ccc(F)cc1)N1CCN(c2c(C#N)c(=O)n(C)c3ccc(Cl)nc23)CC1 (single isomer, unassigned) [Example 388, 6-chloro-4-{4-[1-(4-fluorophenyl)ethyl]piperazin-1-yl}-1-methyl-2-oxo-1,2-dihydro-1,5-naphthyridine-3-carbonitrile] here?
Answer: The EC50 was 480 nM.

Question: What about the IC50 (human DGKα) of the same molecule?
Answer: Its IC50 is 53 nM.

Question: How did the EC50 (naïve human CD8 T cells [2]; [5]) turn out when COc1cc(F)ccc1C(c1ccc(F)cc1)N1CCN(c2c(C#N)c(=O)n(C)c3ccc(C#N)nc23)CC1 (single isomer, unassigned) [Example 406, 8-{4-[(4-fluoro-2-methoxyphenyl)(4-fluorophenyl)methyl]piperazin-1-yl}-5-methy-6-oxo-5,6-dihydro-L5-naphthyridine-2,7-dicarbonitrile] was run?
Answer: Its EC50 is 410 nM.

Question: And the EC50 (Human venous whole blood)?
Answer: Its EC50 is 2190 nM.

Question: For COc1cc(F)ccc1C(c1ccc(F)cc1)N1CCN(c2c(C#N)c(=O)n(C)c3ccc(C#N)nc23)CC1 (single isomer, unassigned) [Example 407, 8-{4-[(4-fluoro-2-methoxyphenyl)(4-fluorophenyl)methyl]piperazin-1-yl}-5-methy-6-oxo-5,6-dihydro-L5-naphthyridine-2,7-dicarbonitrile], which EC50 (naïve human CD8 T cells [2]; [5]) is on record?
Answer: Its EC50 is 120 nM.

Question: What about the EC50 (Human venous whole blood) of the same molecule?
Answer: The EC50 was 780 nM.

Question: With Cn1c(=O)c(C#N)c(N2CCN(C(c3ccc(F)cc3)c3ccccc3O)CC2)c2nc(C#N)ccc21 (stereo not shown) [Example 11, 8-{4-[(4-fluorophenyl)(2-hydroxyphenyl)methyl]piperazin-1-yl}-5-methyl-6-oxo-5,6-dihydro-1,5-naphthyridine-2,7-dicarbonitrile] as the molecule, how does the IC50 (human DGKα) read?
Answer: Its IC50 is 450 nM.

Question: How did the IC50 (human DGKα) turn out when Cn1c(=O)c([N+](=O)[O-])c(N2CCN(CC(O)c3ccc(F)cc3)CC2)c2nc(C#N)ccc21 (stereo not shown) [Example 36, 8-{4-[2-(4-fluorophenyl)-2-hydroxyethyl]piperazin-1-yl}-5-methyl-7-nitro-6-oxo-5,6-dihydro-1,5-naphthyridine-2-carbonitrile] was run?
Answer: Its IC50 is 1400 nM.

Question: Which EC50 (naïve human CD8 T cells [1]; Homo sapiens, T-cell) does the source give for CCCCn1c(=O)c([N+](=O)[O-])c(N2CCN(C(c3ccccc3)c3ccccc3)CC2)c2ncccc21 [Example 177, 4-(4-benzhydrylpiperazin-1-yl)-1-butyl-3-nitro-1,5-naphthyridin-2(1H)-one] here?
Answer: Its EC50 is 10000 nM.

Question: Which EC50 (naïve human CD8 T cells [1]; Homo sapiens, T-cell) does the source give for Cc1ccc2c(n1)c(N1CCN(C(C)c3ccc(F)cc3)CC1)c(Br)c(=O)n2C (stereo not shown) [Example 224, 3-bromo-4-(4-(1-(4-fluorophenyl)ethyl)piperazin-1-yl)-1,6-dimethyl-1,5-naphthyridin-2(1H)-one] here?
Answer: Its EC50 is 4280 nM.

Question: And the IC50 (human DGKα)?
Answer: Its IC50 is 540 nM.

Question: Cc1ccc(CN2CCN(c3c(C#N)c(=O)n(C)c4ccc(Br)nc34)CC2)c(O)c1 [Example 372, 6-bromo-4-{4-[(2-hydroxy-4-methylphenyl)methyl]piperazin-1-yl}-1-methyl-2-oxo-1,2-dihydro-1,5-naphthyridine-3-carbonitrile] was tested. Which IC50 [3] did it give?
Answer: Its IC50 is over 100000 nM.

Question: And the IC50 (human DGKα)?
Answer: Its IC50 is 33 nM.

Question: What about the EC50 (Human venous whole blood; Homo sapiens) of the same molecule?
Answer: Its EC50 is 5000 nM.

Question: Which IC50 (human DGKα) does the source give for Cc1ccc2c(n1)c(N1CCN(Cc3cccc(Cl)c3O)CC1)c(C#N)c(=O)n2C [Example 389, 4-{4-[(3-chloro-2-hydroxyphenyl)methyl]piperazin-1-yl}-1,6-dimethyl-2-oxo-1,2-dihydro-1,5-naphthyridine-3-carbonitrile] here?
Answer: Its IC50 is 850 nM.

Question: What does the source list for Cc1cccc(CN2CCN(c3c(C#N)c(=O)n(C)c4ccc(Cl)nc34)CC2)c1O [Example 391, 6-chloro-4-{4-[(2-hydroxy-3-methylphenyl)methyl]piperazin-1-yl}-1-methyl-2-oxo-1,2-dihydro-1,5-naphthyridine-3-carbonitrile]?
Answer: IC50 (human DGKα): 260 nM; EC50 (Human venous whole blood; Homo sapiens): 3500 nM

Question: With Cn1c(=O)c([N+](=O)[O-])c(N2CCN(Cc3cccc4ccccc34)CC2)c2nc(C#N)ccc21 [Example 415, 5-methyl-8-{4-[(naphthalen-1-yl)methyl]piperazin-1-yl}-7-nitro-6-oxo-5,6-dihydro-1,5-naphthyridine-2-carbonitrile] as the molecule, how does the EC50 (naïve human CD8 T cells [1]; Homo sapiens, T-cell) read?
Answer: The EC50 was 20 nM.

Question: For COc1cc(C#N)ccc1CN1CCN(c2c(C#N)c(=O)n(C)c3ccc(Cl)nc23)CC1 [Example 424, 6-chloro-4-{4-[(4-cyano-2-methoxyphenyl)methyl]piperazin-1-yl}-1-methyl-2-oxo-1,2-dihydro-1,5-naphthyridine-3-carbonitrile], which IC50 [3] is on record?
Answer: Its IC50 is over 100000 nM.

Question: And the IC50 (human DGKα)?
Answer: The IC50 was 770 nM.
